Source: the NIST ThermoML archive (doi:10.1021/je500513b)

Experiment: mn = molality of the nth substance listed, in mol/kg
Conditions: for surface tension liquid-gas: Pendant drop shape; for electrical conductivity: 100 kPa, Liquid, Mettler Toledo inLab 710

CCCCCCCCCCCCCC[N+](C)(C)CCC[N+](C)(C)CCCCCCCCCCCCCC.[Br-].[Br-] + O
Conditions	electrical conductivity [S/m]	surface tension liquid-gas [mN/m]
298.15 K, m1 = 1e-05	–	57.45
298.15 K, m1 = 2e-05	–	53.65
298.15 K, m1 = 3e-05	–	50.48
298.15 K, m1 = 4e-05	–	47.51
298.15 K, m1 = 5e-05	–	45.48
298.15 K, m1 = 6e-05	–	42.44
298.15 K, m1 = 7e-05	–	40.27
298.15 K, m1 = 8e-05	–	38.27
298.15 K, m1 = 9e-05	–	37
298.15 K, m1 = 9.3e-05	0.00212	–
298.15 K, m1 = 9.8e-05	0.00224	–
298.15 K, m1 = 0.0001	–	35.52
298.15 K, m1 = 0.000104	0.00236	–
298.15 K, m1 = 0.000111	0.0025	–
298.15 K, m1 = 0.000119	0.00264	–
298.15 K, m1 = 0.00012	–	34.27
298.15 K, m1 = 0.000125	0.00274	–
298.15 K, m1 = 0.000132	0.00285	–
298.15 K, m1 = 0.000139	0.00294	–
298.15 K, m1 = 0.00014	–	34.18
298.15 K, m1 = 0.000147	0.00303	–
298.15 K, m1 = 0.000156	0.00311	–
298.15 K, m1 = 0.000164	0.00318	–
298.15 K, m1 = 0.00017	–	34.06
298.15 K, m1 = 0.000172	0.00325	–
298.15 K, m1 = 0.000182	0.00331	–
298.15 K, m1 = 0.000192	0.00338	–
298.15 K, m1 = 0.0002	0.00343	33.81
298.15 K, m1 = 0.000208	0.00348	–
298.15 K, m1 = 0.000217	0.00352	–
298.15 K, m1 = 0.000227	0.00358	–
298.15 K, m1 = 0.000238	0.00365	–
298.15 K, m1 = 0.00025	0.00372	–
298.15 K, m1 = 0.0003	–	33.92
303.15 K, m1 = 9.8e-05	0.00251	–
303.15 K, m1 = 0.000104	0.00267	–
303.15 K, m1 = 0.000111	0.00283	–
303.15 K, m1 = 0.000119	0.003	–
303.15 K, m1 = 0.000125	0.00311	–
303.15 K, m1 = 0.000132	0.00324	–
303.15 K, m1 = 0.000139	0.00337	–
303.15 K, m1 = 0.000147	0.00351	–
303.15 K, m1 = 0.000156	0.00364	–
303.15 K, m1 = 0.000164	0.00373	–
303.15 K, m1 = 0.000172	0.00381	–
303.15 K, m1 = 0.000182	0.0039	–
303.15 K, m1 = 0.000192	0.00399	–
303.15 K, m1 = 0.0002	0.00405	–
303.15 K, m1 = 0.000208	0.00412	–
303.15 K, m1 = 0.000217	0.00418	–
303.15 K, m1 = 0.000227	0.00426	–
303.15 K, m1 = 0.000238	0.00434	–
303.15 K, m1 = 0.00025	0.00443	–
308.15 K, m1 = 9.3e-05	0.0026	–
308.15 K, m1 = 9.8e-05	0.00274	–
308.15 K, m1 = 0.000104	0.00288	–
308.15 K, m1 = 0.000111	0.00302	–
308.15 K, m1 = 0.000119	0.00323	–
308.15 K, m1 = 0.000125	0.00335	–
308.15 K, m1 = 0.000132	0.0035	–
308.15 K, m1 = 0.000139	0.00367	–
308.15 K, m1 = 0.000147	0.00382	–
308.15 K, m1 = 0.000156	0.00398	–
308.15 K, m1 = 0.000164	0.00411	–
308.15 K, m1 = 0.000172	0.00421	–
308.15 K, m1 = 0.000182	0.00434	–
